Source: US20080096967A1, “Formulations for Injection of Catecholic Butanes, Including Ndga Compounds, Into Animals” (priority 2005, published 2008)

Assay: M4N solubility in water miscible organic solvents up to 48 hours (RP-HPLC)
Assay type: physicochemical
Method: To prepare M4N samples, 200 μL of 100 mg/mL M4N dissolved in acetone were placed in 1.5 mL polypropylene microtubes. The solvent was allowed to evaporate at room temperature for 48 hours until the samples were completely dry.
The water miscible organic solvent formulations were prepared in 15 mL polypropylene centrifuge tubes. 10 mL of each formulation was prepared. Each solvent was added on the basis of weight using its respective density at 25° C. Following brief mixing, each formulation was filtered through a 0.45 μm surfactant free cellulose acetate (“SFCA”) filter into a fresh 15 mL tube. Formulations were kept at room temperature until ready for use.
At each time point, the samples were centrifuged for 2 minutes at 13,000 rpm to pellet any solid M4N. As noted in Table 25, over half of the formulation conditions examined were able to solubilize M4N to a concentration of greater than 10 mg/Ml.

COc1ccc(C[C@@H](C)[C@@H](C)Cc2ccc(OC)c(OC)c2)cc1OC [Formulation M4N, meso-1,4-bis(3,4-dimethoxyphenyl)-2,3-dimethylbutane]
M4N solubility (14% EtOH, 30% PG, 40% Crem, 10% T80, 6% DMA, 2 hrs at room temperature): 9030 µg/mL
M4N solubility (14% EtOH, 30% PG, 40% Crem, 10% T80, 6% DMA, 24 hrs at room temperature): 12080 µg/mL
M4N solubility (14% EtOH, 30% PG, 40% Crem, 10% T80, 6% DMA, 48 hrs at room temperature): 12280 µg/mL
M4N solubility (14% EtOH, 30% PG, 40% Glyc, 10% T80, 6% DMA, 2 hrs at room temperature): 850 µg/mL
M4N solubility (14% EtOH, 30% PG, 40% Glyc, 10% T80, 6% DMA, 24 hrs at room temperature): 1240 µg/mL
M4N solubility (14% EtOH, 30% PG, 40% Glyc, 10% T80, 6% DMA, 48 hrs at room temperature): 1480 µg/mL
M4N solubility (14% EtOH, 30% PG, 40% PEG300, 10% T80, 6% DMA, 2 hrs at room temperature): 9400 µg/mL
M4N solubility (14% EtOH, 30% PG, 40% PEG300, 10% T80, 6% DMA, 24 hrs at room temperature): 10550 µg/mL
M4N solubility (14% EtOH, 30% PG, 40% PEG300, 10% T80, 6% DMA, 48 hrs at room temperature): 11300 µg/mL
M4N solubility (18% EtOH, 30% PG, 40% Crem, 10% T80, 2% Benz, 2 hrs at room temperature): 8640 µg/mL
M4N solubility (18% EtOH, 30% PG, 40% Crem, 10% T80, 2% Benz, 24 hrs at room temperature): 11780 µg/mL
M4N solubility (18% EtOH, 30% PG, 40% Crem, 10% T80, 2% Benz, 48 hrs at room temperature): 11860 µg/mL
M4N solubility (18% EtOH, 30% PG, 40% Glyc, 10% T80, 2% Benz, 2 hrs at room temperature): 580 µg/mL
M4N solubility (18% EtOH, 30% PG, 40% Glyc, 10% T80, 2% Benz, 24 hrs at room temperature): 1010 µg/mL
M4N solubility (18% EtOH, 30% PG, 40% Glyc, 10% T80, 2% Benz, 48 hrs at room temperature): 1150 µg/mL
M4N solubility (18% EtOH, 30% PG, 40% PEG300, 10% T80, 2% Benz, 2 hrs at room temperature): 7840 µg/mL
M4N solubility (18% EtOH, 30% PG, 40% PEG300, 10% T80, 2% Benz, 24 hrs at room temperature): 9790 µg/mL
M4N solubility (18% EtOH, 30% PG, 40% PEG300, 10% T80, 2% Benz, 48 hrs at room temperature): 10160 µg/mL
M4N solubility (24% EtOH, 30% PG, 30% Crem, 10% T80, 6% DMA, 2 hrs at room temperature): 10420 µg/mL
M4N solubility (24% EtOH, 30% PG, 30% Crem, 10% T80, 6% DMA, 24 hrs at room temperature): 11250 µg/mL
M4N solubility (24% EtOH, 30% PG, 30% Crem, 10% T80, 6% DMA, 48 hrs at room temperature): 12480 µg/mL
M4N solubility (24% EtOH, 30% PG, 30% Glyc, 10% T80, 6% DMA, 2 hrs at room temperature): 1630 µg/mL
M4N solubility (24% EtOH, 30% PG, 30% Glyc, 10% T80, 6% DMA, 24 hrs at room temperature): 2260 µg/mL
M4N solubility (24% EtOH, 30% PG, 30% Glyc, 10% T80, 6% DMA, 48 hrs at room temperature): 2520 µg/mL
M4N solubility (24% EtOH, 30% PG, 30% PEG300, 10% T80, 6% DMA, 2 hrs at room temperature): 9910 µg/mL
M4N solubility (24% EtOH, 30% PG, 30% PEG300, 10% T80, 6% DMA, 24 hrs at room temperature): 10800 µg/mL
M4N solubility (28% EtOH, 30% PG, 30% Crem, 10% T80, 2% Benz, 2 hrs at room temperature): 8980 µg/mL
M4N solubility (28% EtOH, 30% PG, 30% Crem, 10% T80, 2% Benz, 24 hrs at room temperature): 11350 µg/mL
M4N solubility (28% EtOH, 30% PG, 30% Crem, 10% T80, 2% Benz, 48 hrs at room temperature): 11280 µg/mL
M4N solubility (28% EtOH, 30% PG, 30% Glyc, 10% T80, 2% Benz, 2 hrs at room temperature): 1860 µg/mL
M4N solubility (28% EtOH, 30% PG, 30% Glyc, 10% T80, 2% Benz, 24 hrs at room temperature): 2220 µg/mL
M4N solubility (28% EtOH, 30% PG, 30% Glyc, 10% T80, 2% Benz, 48 hrs at room temperature): 2530 µg/mL
M4N solubility (28% EtOH, 30% PG, 30% PEG300, 10% T80, 2% Benz, 2 hrs at room temperature): 8870 µg/mL
M4N solubility (28% EtOH, 30% PG, 30% PEG300, 10% T80, 2% Benz, 24 hrs at room temperature): 10190 µg/mL
M4N solubility (28% EtOH, 30% PG, 30% PEG300, 10% T80, 2% Benz, 48 hrs at room temperature): 10270 µg/mL
M4N solubility (44% EtOH, 50% Crem, 6% DMA, 2 hrs at room temperature): 14850 µg/mL
M4N solubility (44% EtOH, 50% Crem, 6% DMA, 24 hrs at room temperature): 20420 µg/mL
M4N solubility (44% EtOH, 50% Crem, 6% DMA, 48 hrs at room temperature): 21080 µg/mL
M4N solubility (44% EtOH, 50% Glycerol, 6% DMA, 2 hrs at room temperature): 1430 µg/mL
M4N solubility (44% EtOH, 50% Glycerol, 6% DMA, 24 hrs at room temperature): 1900 µg/mL
M4N solubility (44% EtOH, 50% Glycerol, 6% DMA, 48 hrs at room temperature): 2010 µg/mL
M4N solubility (44% EtOH, 50% PEG300, 6% DMA, 2 hrs at room temperature): 15120 µg/mL
M4N solubility (44% EtOH, 50% PEG300, 6% DMA, 24 hrs at room temperature): 18610 µg/mL
M4N solubility (44% EtOH, 50% PEG300, 6% DMA, 48 hrs at room temperature): 18270 µg/mL
M4N solubility (44% EtOH, 50% PG, 6% DMA, 2 hrs at room temperature): 4800 µg/mL
M4N solubility (44% EtOH, 50% PG, 6% DMA, 24 hrs at room temperature): 5480 µg/mL
M4N solubility (44% EtOH, 50% PG, 6% DMA, 48 hrs at room temperature): 2930 µg/mL
M4N solubility (44% EtOH, 50% T80, 6% DMA, 2 hrs at room temperature): 17720 µg/mL
M4N solubility (44% EtOH, 50% T80, 6% DMA, 24 hrs at room temperature): 22410 µg/mL
M4N solubility (44% EtOH, 50% T80, 6% DMA, 48 hrs at room temperature): 23000 µg/mL
M4N solubility (48% EtOH, 50% Crem, 2% Benz, 2 hrs at room temperature): 14020 µg/mL
M4N solubility (48% EtOH, 50% Crem, 2% Benz, 24 hrs at room temperature): 18170 µg/mL
M4N solubility (48% EtOH, 50% Crem, 2% Benz, 48 hrs at room temperature): 18510 µg/mL
M4N solubility (48% EtOH, 50% Glycerol, 2% Benz, 2 hrs at room temperature): 1250 µg/mL
M4N solubility (48% EtOH, 50% Glycerol, 2% Benz, 24 hrs at room temperature): 1660 µg/mL
M4N solubility (48% EtOH, 50% Glycerol, 2% Benz, 48 hrs at room temperature): 1730 µg/mL
M4N solubility (48% EtOH, 50% PEG300, 2% Benz, 2 hrs at room temperature): 14510 µg/mL
M4N solubility (48% EtOH, 50% PEG300, 2% Benz, 24 hrs at room temperature): 15780 µg/mL
M4N solubility (48% EtOH, 50% PEG300, 2% Benz, 48 hrs at room temperature): 16490 µg/mL
M4N solubility (48% EtOH, 50% PG, 2% Benz, 2 hrs at room temperature): 4420 µg/mL
M4N solubility (48% EtOH, 50% PG, 2% Benz, 24 hrs at room temperature): 4790 µg/mL
M4N solubility (48% EtOH, 50% PG, 2% Benz, 48 hrs at room temperature): 4920 µg/mL
M4N solubility (48% EtOH, 50% T80, 2% Benz, 2 hrs at room temperature): 16170 µg/mL
M4N solubility (48% EtOH, 50% T80, 2% Benz, 24 hrs at room temperature): 19550 µg/mL
M4N solubility (48% EtOH, 50% T80, 2% Benz, 48 hrs at room temperature): 19960 µg/mL
M4N solubility (50% EtOH, 50% Crem, 2 hrs at room temperature): 13950 µg/mL
M4N solubility (50% EtOH, 50% Crem, 24 hrs at room temperature): 17580 µg/mL
M4N solubility (50% EtOH, 50% Crem, 48 hrs at room temperature): 18490 µg/mL
M4N solubility (50% EtOH, 50% Glycerol, 2 hrs at room temperature): 1140 µg/mL
M4N solubility (50% EtOH, 50% Glycerol, 24 hrs at room temperature): 1530 µg/mL
M4N solubility (50% EtOH, 50% Glycerol, 48 hrs at room temperature): 1600 µg/mL
M4N solubility (50% EtOH, 50% PEG300, 24 hrs at room temperature): 15070 µg/mL
M4N solubility (50% EtOH, 50% PEG300, 48 hrs at room temperature): 16610 µg/mL
M4N solubility (50% EtOH, 50% PG, 2 hrs at room temperature): 3640 µg/mL
M4N solubility (50% EtOH, 50% PG, 24 hrs at room temperature): 4150 µg/mL
M4N solubility (50% EtOH, 50% PG, 48 hrs at room temperature): 4430 µg/mL
M4N solubility (50% EtOH, 50% T80, 2 hrs at room temperature): 15910 µg/mL
M4N solubility (50% EtOH, 50% T80, 24 hrs at room temperature): 19280 µg/mL
M4N solubility (50% PG, 50% Crem, 2 hrs at room temperature): 2940 µg/mL
M4N solubility (50% PG, 50% Crem, 24 hrs at room temperature): 6330 µg/mL
M4N solubility (50% PG, 50% Crem, 48 hrs at room temperature): 7200 µg/mL
M4N solubility (50% PG, 50% Glycerol, 2 hrs at room temperature): 130 µg/mL
M4N solubility (50% PG, 50% Glycerol, 24 hrs at room temperature): 480 µg/mL
M4N solubility (50% PG, 50% Glycerol, 48 hrs at room temperature): 510 µg/mL
M4N solubility (50% PG, 50% PEG300, 2 hrs at room temperature): 2650 µg/mL
M4N solubility (50% PG, 50% PEG300, 24 hrs at room temperature): 4880 µg/mL
M4N solubility (50% PG, 50% PEG300, 48 hrs at room temperature): 5300 µg/mL
M4N solubility (50% PG, 50% T80, 2 hrs at room temperature): 5070 µg/mL
M4N solubility (50% PG, 50% T80, 24 hrs at room temperature): 8160 µg/mL
M4N solubility (50% PG, 50% T80, 48 hrs at room temperature): 8410 µg/mL
M4N solubility (100% Crem, 2 hrs at room temperature): 1190 µg/mL
M4N solubility (100% Crem, 24 hrs at room temperature): 7510 µg/mL
M4N solubility (100% Crem, 48 hrs at room temperature): 12480 µg/mL
M4N solubility (100% EtOH, 2 hrs at room temperature): 7200 µg/mL
M4N solubility (100% EtOH, 24 hrs at room temperature): 7220 µg/mL
M4N solubility (100% EtOH, 48 hrs at room temperature): 7910 µg/mL
M4N solubility (100% Glycerol, 2 hrs at room temperature): XXX (not detectable)
M4N solubility (100% Glycerol, 24 hrs at room temperature): 80 µg/mL
M4N solubility (100% Glycerol, 48 hrs at room temperature): XXX (not detectable)
M4N solubility (glycerol, 2 and 48 hours): not detectable
